Measured values from ChEMBL document CHEMBL1201862, “PubChem BioAssay data set” (2004).
Values belong to the molecule of their own block, whether it stands above or below them. Activity calls are given as the source filed them.

How the values were obtained:
Cytochrome P450 3A4 = Cytochrome P450 3A4 (Homo sapiens, UniProt P08684);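 further: CYP3A4 tested as one member of a cytochrome P450 panel screen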
fMet-Leu-Phe receptor = fMet-Leu-Phe receptor (Homo sapiens, UniProt P21462); experiment: formyl peptide receptor binders – dose response (AID 519); format: functional
[1] = A549 cell cytotoxicity, dose response, cytotoxicity control, plate reader, cherry-pick, antagonist series (AID 743412); format: functional, cell-based
[2] = viability loss in CEM21 cells – cell-based, CellTiter-Glo luminescence, cherry-picked, cytotoxicity control for viral fusion inhibitor project, dose response (AID 652042); format: functional;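 further: potency for signal decrease meaning cytotoxicity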
[3] = viability loss in HEK293 cells – cell-based, plate reader, cherry-picked samples, cytotoxicity control, dose response (AID 743446); format: functional
[4] = non-specific 3'UTR reporter inhibition in Clone20-Shn3RL – cell-based, Renilla luciferase, cherry-picked, counter-screen for Shn3 inhibitor project, dose response (AID 624133); format: functional
[5] = blockers of HIV-1 envelope-mediated cell-cell fusion – cherry-pick, dose response (AID 652057); format: functional, cell-based
[6] = HEK-293T viability loss, compound-treated – cell-based, uHTS hits, cytotoxicity control for B/T-cell NF-kB inhibitor project, dose response (AID 489019); format: functional;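 further: IC50 reflects cytotoxicity as loss of cell viability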
[7] = loss of viability in HepG2 cells – cell-based, CellTiter-Glo, cherry-picked, cytotoxicity control for Shn3 inhibitor project, dose response (AID 624134); format: functional
Paired box protein Pax-8 = Paired box protein Pax-8 (Homo sapiens, UniProt Q06710); experiment: PAX8 transcriptional activity inhibition in RMG-I – RMG-I cells, luciferase, cherry-pick, dose response (AID 687027); format: functional, cell-based;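 further: luciferase reporter driven by Pax8 target thyroperoxidase promoter measured by SteadyGlo luminescence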
[8] = off-target signal loss in HeLa-CEM21 co-culture – HeLa F-luc CTL cells, cherry-picked, counter-screen for HIV-1 Env fusion inhibitor project, dose response (AID 652040); format: functional, cell-based;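 further: potency for signal decrease marking cytotoxic or nonspecific inhibition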
[9] = biological target: T1, Microphthalmia-associated transcription factor (Homo sapiens, UniProt O75030); experiment: reducers of TRPM1 reporter luminescence, concentration series – cell-based, SK-MEL-5, cherry-picked, set 3, MITF inhibitor project, dose response (AID 493073); format: functional;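 further: SK-MEL-5 melanoma cells with luciferase driven by the MITF target TRPM1 promoter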
T1 sequence (O75030 whole entry): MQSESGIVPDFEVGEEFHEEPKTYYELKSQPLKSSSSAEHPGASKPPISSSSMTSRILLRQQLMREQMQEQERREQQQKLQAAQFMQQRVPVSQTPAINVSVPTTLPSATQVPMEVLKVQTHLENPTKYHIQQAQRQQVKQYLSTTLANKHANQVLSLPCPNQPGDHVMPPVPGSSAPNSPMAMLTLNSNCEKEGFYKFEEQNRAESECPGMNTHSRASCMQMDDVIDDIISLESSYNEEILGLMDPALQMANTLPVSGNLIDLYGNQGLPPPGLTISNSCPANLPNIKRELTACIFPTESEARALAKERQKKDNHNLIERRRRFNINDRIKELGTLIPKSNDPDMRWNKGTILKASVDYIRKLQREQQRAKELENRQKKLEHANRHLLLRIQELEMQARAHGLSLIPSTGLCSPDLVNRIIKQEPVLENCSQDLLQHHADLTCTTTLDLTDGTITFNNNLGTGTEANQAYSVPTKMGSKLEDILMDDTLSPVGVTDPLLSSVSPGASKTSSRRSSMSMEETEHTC

[10] = blockade of melanocortin 4 receptor signaling – cell-based, plate reader, cherry pick, counter-screen for LGR2 antagonist project, dose response (AID 743444); format: functional;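 further: transfected HEK 293 cells stimulated with alpha-MSH peptide; potency of inhibitors of the alpha-MSH evoked signal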
Melanocortin receptor 4 = Melanocortin receptor 4 (Homo sapiens, UniProt P32245); experiment: inhibitors of MC4R cAMP signaling – cell-based, TR-FRET, biased antagonists, dose response (AID 602298); format: functional;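 further: antagonist potency against agonist-stimulated cAMP production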
[11] = reduced cellular PGC1a acetyl-lysine signal – cell-based, cherry-picked samples, dose response (AID 720514); format: functional;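 further: potency may reflect raised or lowered acetylation signal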
[12] = reduction of Shn3 3'UTR-driven luciferase in osteoblasts – cell-based, Clone20 osteoblasts, firefly luciferase, cherry-picked, dose response (AID 624132); format: functional;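 further: firefly luciferase luminescence from reporter carrying the Shn3 3'UTR in osteoblasts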
Jurkat = experiment: blockers of NF-kB activation in T cells – Jurkat, luciferase reporter, luminescence, B- and T-cell, dose response (AID 489004); format: functional, cell-based; conditions: Homo sapiens;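 further: NF-kB luciferase reporter Jurkat cells stimulated with PMA plus ionomycin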
[13] = blockers of HIV-1 ZM109 envelope-driven cell-cell fusion – HeLa effector, CEM target cells, luciferase, cherry-pick, dose response (AID 652058); format: functional, cell-based;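 further: luciferase signal from HIV-1 Env mediated cell-cell fusion of effector and target cells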
[14] = blockers of bursicon-stimulated LGR2 cAMP reporter – cell-based, HEK293, CRE-luciferase reporter, cherry pick, set 2, dose response (AID 743343); format: functional;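 further: transfected cells were stimulated with diluted bursicon conditioned medium after compound addition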
[15] = HIV-1 AD8 envelope cell-cell fusion blockers – cherry-pick, dose response (AID 652062); format: functional, cell-based;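 further: luciferase signal from cell-cell fusion driven by HIV-1 clade B AD8 Env; potency is for inhibitors of fusion seen as a drop in luminescence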
[16] = toxicity toward HepG2 liver cells – cell-based, plate reader, cherry-pick, antagonist series, cytotoxicity control, dose response (AID 743416); format: functional
[17] = general cell-killing toxicity readout – plate reader, dry powder samples, cytotoxicity control for PAX8 inhibitor project, dose response (AID 743021); format: functional, cell-based
[18] = cAMP pathway inhibition in counterscreen cell line – TR-FRET cAMP detection, counter-screen for MC4R biased antagonist project, dose response (AID 602305); format: functional, cell-based;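 further: U2OS cells stimulated with forskolin near its EC80 as the cAMP inducer; potency is for inhibition of forskolin-stimulated cAMP signaling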
[19] = NIH-3T3 fibroblast cytotoxicity, dose response, cytotoxicity control, cell-based, fluorescence, Alamar Blue, secondary assay (AID 2327); format: functional;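 further: NIH-3T3 mouse fibroblasts cultured with fluconazole at 8 µg/mL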
[20] = biological target: Heat shock protein HSP 90-alpha (Homo sapiens, UniProt P07900); format: functional, organism-based
[21] = fluconazole-exposed Candida albicans growth modulators – fluorescence, retest, confirmation (AID 2467); format: functional, cell-based
[22] = Shn3 3'UTR reporter signal decrease – cell-based, Clone20 osteoblasts, firefly luciferase, cherry-pick, set 2, Schnurri-3 inhibitor project, dose response (AID 720490); format: functional;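 further: actives lower the luminescence signal as inhibitors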
cells = format: functional, cell-based; conditions: HEK-CNG
[23] = HEK-293T viability loss after treatment – luminescence, T-cell screen hits, cytotoxicity control for TCR NF-kB inhibitor project, dose response (AID 489026); format: functional, cell-based;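 further: cells exposed to compound about 14 hours before the viability readout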
Galanin receptor type 3 = Galanin receptor type 3 (Homo sapiens, UniProt O60755); experiment: Fluorescence-based cell-based primary high throughput dose response assay to identify antagonists of the Galanin Receptor 3 (GalR3).; format: functional
Caspase-6 = Caspase-6 (Homo sapiens, UniProt P55212); experiment: inhibition of CASP6 peptide cleavage – biochemical, VEID-R110 fluorescence, cherry-pick, dose response (AID 720632)
[24] = biological target: T2, Histone-lysine N-methyltransferase NSD2 (Homo sapiens, UniProt O96028); format: biochemical
T2 sequence (O96028 whole entry): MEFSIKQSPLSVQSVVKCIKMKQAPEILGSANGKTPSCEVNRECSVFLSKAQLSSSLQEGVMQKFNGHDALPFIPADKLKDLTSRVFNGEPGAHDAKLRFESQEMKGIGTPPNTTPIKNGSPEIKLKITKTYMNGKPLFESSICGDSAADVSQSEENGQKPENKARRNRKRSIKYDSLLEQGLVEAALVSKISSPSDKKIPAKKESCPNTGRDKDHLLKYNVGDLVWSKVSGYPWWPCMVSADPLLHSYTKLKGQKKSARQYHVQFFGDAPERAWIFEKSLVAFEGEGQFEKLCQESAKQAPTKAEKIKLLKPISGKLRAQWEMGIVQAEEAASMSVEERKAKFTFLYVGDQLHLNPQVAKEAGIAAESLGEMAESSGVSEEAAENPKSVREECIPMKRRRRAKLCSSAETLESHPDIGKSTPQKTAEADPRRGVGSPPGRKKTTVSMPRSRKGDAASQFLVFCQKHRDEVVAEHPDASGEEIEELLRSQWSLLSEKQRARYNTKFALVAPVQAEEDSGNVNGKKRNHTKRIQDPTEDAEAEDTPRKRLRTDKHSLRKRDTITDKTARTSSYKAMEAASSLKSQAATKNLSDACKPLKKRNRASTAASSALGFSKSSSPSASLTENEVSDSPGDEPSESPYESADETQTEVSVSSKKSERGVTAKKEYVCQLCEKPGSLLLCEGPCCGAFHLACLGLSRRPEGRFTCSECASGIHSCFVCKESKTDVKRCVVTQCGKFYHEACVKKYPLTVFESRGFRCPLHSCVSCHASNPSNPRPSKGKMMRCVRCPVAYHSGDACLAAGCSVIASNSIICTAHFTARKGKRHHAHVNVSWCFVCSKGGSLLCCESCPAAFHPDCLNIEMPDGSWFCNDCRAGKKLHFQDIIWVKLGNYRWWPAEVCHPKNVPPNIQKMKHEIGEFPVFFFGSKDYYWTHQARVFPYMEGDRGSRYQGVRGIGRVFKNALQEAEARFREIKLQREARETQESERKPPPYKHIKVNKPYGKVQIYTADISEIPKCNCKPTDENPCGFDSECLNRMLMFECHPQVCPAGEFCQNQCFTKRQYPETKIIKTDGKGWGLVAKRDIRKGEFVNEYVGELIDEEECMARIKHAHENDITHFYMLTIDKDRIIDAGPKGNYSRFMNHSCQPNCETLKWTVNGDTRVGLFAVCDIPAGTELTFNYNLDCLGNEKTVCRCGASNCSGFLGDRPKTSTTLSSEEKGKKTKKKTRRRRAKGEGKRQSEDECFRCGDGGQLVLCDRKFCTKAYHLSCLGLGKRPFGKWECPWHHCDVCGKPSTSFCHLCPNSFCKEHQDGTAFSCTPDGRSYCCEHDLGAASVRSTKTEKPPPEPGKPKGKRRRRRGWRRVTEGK

[25] = biological target: T3, High affinity choline transporter 1 (Homo sapiens, UniProt Q9GZV3); experiment: human choline transporter blockers, potency – cell-based, 5-point CRC, membrane potential dye, dose response (AID 504840); format: functional
T3 sequence (Q9GZV3 whole entry): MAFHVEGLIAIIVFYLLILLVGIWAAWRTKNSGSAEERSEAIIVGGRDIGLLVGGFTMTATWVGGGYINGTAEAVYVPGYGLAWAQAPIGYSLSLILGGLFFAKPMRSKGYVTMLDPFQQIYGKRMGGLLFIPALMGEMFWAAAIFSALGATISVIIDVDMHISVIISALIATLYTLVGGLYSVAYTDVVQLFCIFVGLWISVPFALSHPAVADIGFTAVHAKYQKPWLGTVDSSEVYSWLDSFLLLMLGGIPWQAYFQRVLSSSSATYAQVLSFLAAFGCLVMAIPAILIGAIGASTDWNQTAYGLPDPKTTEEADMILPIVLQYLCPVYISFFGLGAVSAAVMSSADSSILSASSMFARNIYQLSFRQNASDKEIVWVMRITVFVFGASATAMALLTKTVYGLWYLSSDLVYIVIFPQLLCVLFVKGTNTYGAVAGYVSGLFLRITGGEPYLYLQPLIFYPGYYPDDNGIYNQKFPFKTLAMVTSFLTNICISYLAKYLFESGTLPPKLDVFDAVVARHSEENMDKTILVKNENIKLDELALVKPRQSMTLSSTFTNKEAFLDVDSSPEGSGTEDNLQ

Sequence of Caspase-6 (P55212 24-179 limits assumed): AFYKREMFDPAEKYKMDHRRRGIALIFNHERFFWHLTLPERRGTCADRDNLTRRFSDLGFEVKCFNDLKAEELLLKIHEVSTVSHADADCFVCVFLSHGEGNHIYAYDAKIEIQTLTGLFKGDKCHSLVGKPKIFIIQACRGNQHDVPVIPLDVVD
Sequence of Caspase-6 (P55212 194-293 limits assumed): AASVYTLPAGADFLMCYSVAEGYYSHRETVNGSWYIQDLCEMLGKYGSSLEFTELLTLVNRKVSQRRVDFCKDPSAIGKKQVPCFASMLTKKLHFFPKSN
Sequence of Cytochrome P450 3A4 (P08684 whole entry): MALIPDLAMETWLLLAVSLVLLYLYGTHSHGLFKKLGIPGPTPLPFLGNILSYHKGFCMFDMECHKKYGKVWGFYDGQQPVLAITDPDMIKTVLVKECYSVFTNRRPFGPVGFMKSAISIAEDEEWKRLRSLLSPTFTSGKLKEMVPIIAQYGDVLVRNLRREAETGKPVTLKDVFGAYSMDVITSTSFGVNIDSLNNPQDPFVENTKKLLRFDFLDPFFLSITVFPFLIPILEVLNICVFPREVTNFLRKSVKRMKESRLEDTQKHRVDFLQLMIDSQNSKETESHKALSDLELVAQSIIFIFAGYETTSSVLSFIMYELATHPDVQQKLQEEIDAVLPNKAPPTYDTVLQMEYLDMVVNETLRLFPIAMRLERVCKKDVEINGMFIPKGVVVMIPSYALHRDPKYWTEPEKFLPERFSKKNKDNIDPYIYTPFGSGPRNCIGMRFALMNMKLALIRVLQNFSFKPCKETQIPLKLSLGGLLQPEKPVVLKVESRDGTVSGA
Sequence of Paired box protein Pax-8 (Q06710 whole entry, the tested form may be a part): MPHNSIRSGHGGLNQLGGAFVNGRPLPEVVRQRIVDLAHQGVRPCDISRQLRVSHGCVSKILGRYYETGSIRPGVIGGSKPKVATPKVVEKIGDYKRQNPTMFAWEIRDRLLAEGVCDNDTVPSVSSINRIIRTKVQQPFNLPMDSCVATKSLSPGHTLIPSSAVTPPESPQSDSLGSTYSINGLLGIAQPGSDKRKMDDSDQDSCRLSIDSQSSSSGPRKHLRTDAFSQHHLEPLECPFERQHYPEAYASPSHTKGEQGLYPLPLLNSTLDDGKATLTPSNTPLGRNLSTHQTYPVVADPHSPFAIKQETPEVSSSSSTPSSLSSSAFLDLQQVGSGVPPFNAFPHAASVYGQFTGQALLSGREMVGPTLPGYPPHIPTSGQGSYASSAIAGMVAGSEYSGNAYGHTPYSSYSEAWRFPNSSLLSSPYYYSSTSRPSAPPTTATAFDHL
Sequence of fMet-Leu-Phe receptor (P21462 whole entry): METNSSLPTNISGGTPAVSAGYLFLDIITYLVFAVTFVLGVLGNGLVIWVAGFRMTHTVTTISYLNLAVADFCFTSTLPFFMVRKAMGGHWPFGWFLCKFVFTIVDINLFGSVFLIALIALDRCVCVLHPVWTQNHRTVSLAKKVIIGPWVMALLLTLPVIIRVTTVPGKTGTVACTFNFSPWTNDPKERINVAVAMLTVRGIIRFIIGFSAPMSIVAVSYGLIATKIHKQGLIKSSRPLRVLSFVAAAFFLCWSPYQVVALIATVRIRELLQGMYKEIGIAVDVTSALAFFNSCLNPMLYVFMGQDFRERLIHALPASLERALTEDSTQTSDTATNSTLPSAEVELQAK
Sequence of Galanin receptor type 3 (O60755 whole entry): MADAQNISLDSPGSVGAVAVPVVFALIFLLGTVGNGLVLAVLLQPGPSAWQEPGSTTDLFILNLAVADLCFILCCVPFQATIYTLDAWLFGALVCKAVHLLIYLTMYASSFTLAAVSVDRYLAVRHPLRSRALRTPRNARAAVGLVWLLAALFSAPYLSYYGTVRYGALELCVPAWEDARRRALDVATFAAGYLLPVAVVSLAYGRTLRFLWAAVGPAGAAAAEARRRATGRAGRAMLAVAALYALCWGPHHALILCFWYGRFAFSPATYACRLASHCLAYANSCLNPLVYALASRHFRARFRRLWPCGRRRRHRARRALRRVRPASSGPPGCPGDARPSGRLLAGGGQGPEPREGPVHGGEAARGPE
Sequence of Melanocortin receptor 4 (P32245 whole entry): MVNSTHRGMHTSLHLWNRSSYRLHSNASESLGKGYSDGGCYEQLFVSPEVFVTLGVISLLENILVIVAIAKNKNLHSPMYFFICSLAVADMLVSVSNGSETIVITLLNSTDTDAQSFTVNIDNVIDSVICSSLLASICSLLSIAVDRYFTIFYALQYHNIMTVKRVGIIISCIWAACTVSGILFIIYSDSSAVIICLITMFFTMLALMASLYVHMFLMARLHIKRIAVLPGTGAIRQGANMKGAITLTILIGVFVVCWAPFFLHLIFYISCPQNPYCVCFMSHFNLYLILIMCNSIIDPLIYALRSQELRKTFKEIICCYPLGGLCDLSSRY

AC50 (Cytochrome P450 3A4): 25.1 µM (inconclusive) | Ki (fMet-Leu-Phe receptor): > 66.7 µM (inactive)
SMILES: COc1ccc(-c2cc(C(F)(F)F)nc(N3CCCCC3)n2)cc1OC

SMILES: C#CC(=O)N(c1ccc(OC)cc1OC)C(C(=O)NC1CCCC1)c1cccs1 (configuration not stated)
AC50 [1]: 13.4 µM (active) | AC50 [2]: 0.631 µM (active) | AC50 [3]: 1.87 µM (active) | AC50 [4]: 1.11 µM (active) | AC50 [5]: 14.8 µM (active) | IC50 [6]: 37.3 µM (inactive) | AC50 [7]: 4.23 µM (active) | AC50 (Paired box protein Pax-8): < 0.26 µM (active) | AC50 [8]: 4.53 µM (active) | AC50 [9]: 4.73 µM (active) | AC50 [10]: 6.64 µM (active) | IC50 (Melanocortin receptor 4): > 64.6 µM (inactive) | AC50 [11]: 3.91 µM (active) | AC50 [12]: 7.12 µM (active) | IC50 (Jurkat): 0.32 µM (active) | AC50 [13]: 14.4 µM (active) | AC50 [14]: 8.43 µM (active) | AC50 [15]: 9.92 µM (active) | AC50 [16]: 0.839 µM (active) | AC50 [17]: 0.678 µM (active) | IC50 [18]: > 64.6 µM (inactive)

SMILES: CC(C)CCOc1cccc(OCC(=O)Nc2ccncc2)c1
EC50 [19]: > 160 µM (inactive) | AC50 [4]: 2.72 µM (active) | AC50 [20]: 2.62 µM (active) | AC50 [7]: 48.5 µM (active) | EC50 [21]: 3.63 µM (active) | AC50 [22]: 1.07 µM (active) | EC50 (cells): > 29.9 µM (inactive) | AC50 [12]: 0.571 µM (active) | IC50 [23]: > 80 µM (inactive) | IC50 (Galanin receptor type 3): 1.06 µM (active)

AC50 (Caspase-6): 43.7 µM (active)
SMILES: CC(C)C(=O)C1=Cc2cccc([N+](=O)[O-])c2OC1N1CCOCC1 (configuration not stated)

SMILES: O=C1N/C(=N\c2ccccc2Cl)S/C1=C\c1cccc([N+](=O)[O-])c1O
AC50 [24]: 19.2 µM (active) | IC50 [25]: 12.6 µM (active) | AC50 (Caspase-6): 11 µM (active)
